This note sets out measurements from publication PMC6720883, “In Vitro Inhibitory Effects of APINACA on Human Major Cytochrome P450, UDP-Glucuronosyltransferase Enzymes, and Drug Transporters” (Molecules, 2019).

Type in all cases: in vitro ADME
For one data set, the target named is T1, OCT2 (Homo sapiens, UniProt O15244).
T1 construct: host or cells: HEK293 (transient overexpression)
T1 sequence (O15244 1-555): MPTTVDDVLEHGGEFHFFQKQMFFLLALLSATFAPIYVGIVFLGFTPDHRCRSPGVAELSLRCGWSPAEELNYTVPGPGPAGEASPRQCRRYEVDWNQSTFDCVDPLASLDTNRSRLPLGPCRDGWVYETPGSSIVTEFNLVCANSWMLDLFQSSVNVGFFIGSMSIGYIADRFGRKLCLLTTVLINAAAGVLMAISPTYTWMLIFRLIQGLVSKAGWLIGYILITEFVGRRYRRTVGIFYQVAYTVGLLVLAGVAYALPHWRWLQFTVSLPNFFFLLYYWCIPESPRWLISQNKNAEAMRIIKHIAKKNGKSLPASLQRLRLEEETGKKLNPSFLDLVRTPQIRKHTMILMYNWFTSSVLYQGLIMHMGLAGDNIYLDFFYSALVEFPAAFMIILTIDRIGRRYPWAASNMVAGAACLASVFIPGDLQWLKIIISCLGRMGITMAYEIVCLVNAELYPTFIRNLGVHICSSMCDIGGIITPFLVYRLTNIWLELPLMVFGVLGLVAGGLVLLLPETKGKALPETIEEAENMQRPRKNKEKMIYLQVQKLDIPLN
As to the kind of experiment: Uptake of [3-H]methyl-4-phenylpyridinium in HEK293-OCT2 cells. The procedure: To examine the effects of APINACA and typical inhibitors on transporter activity, the uptake of a probe substrate into HEK293 cells overexpressing the respective solute carrier transporters was measured in the presence of APINACA (final concentrations of 0–250 μM) or typical inhibitors for 5 min. The concentrations and probe substrates were selected as follows: 0.1 μM [3-H]MPP^+ (for OCT1 and OCT2), 0.1 μM [3-H]PAH (for OAT1), 0.1 μM [3-H]ES (for OAT3 and OATP1B1), and 0.1 μM [3-H]EG (for OATP1B3).
(§1) 12.5 (Systat Software, Inc.; San Jose, CA, USA). […] 1.1 (Systat Software, Inc.).

The target of another data set is CYP2A6 (Homo sapiens, UniProt P11509). As to the kind of experiment: Inhibition of CYP2A6-mediated coumarin 7-hydroxylase in ultrapooled human liver microsomes. On the procedure: The inhibitory potentials (IC50 values) of APINACA and typical CYP inhibitors on CYP 1A2, 2A6, 2C8, 2C9, 2C19, 2D6, and 3A4 activities in pooled human liver microsomes were evaluated following our previous method using a cocktail of CYP substrates, followed by LC–MS/MS [43]. […] After 3 min of preincubation at 37 °C, the reaction mixtures were incubated for 15 min at 37 °C with the addition of NADPH in a shaking water bath. The reaction was stopped by adding 100 μL of ice cold methanol containing internal standards (d9-1′-hydroxybufuralol for 1′-hydroxybufuralol, 4′-hydroxydiclofenac, 7-hydroxycoumarin, 1′-hydroxymidazolam, and 4′-hydroxymephenytoin; ^13C2, ^15N-acetaminophen for acetaminophen and N-desethylamodiaquine). The incubation mixtures were centrifuged at 13,000× g for 8 min at 4 °C, and 50 μL of each supernatant was diluted with 50 μL of water. Aliquots (5 μL) of the diluted supernatants were analyzed by LC–MS/MS. All assays were performed in triplicate, and the average values were used for subsequent calculations.
Chain of CYP2A6 (P11509 whole entry): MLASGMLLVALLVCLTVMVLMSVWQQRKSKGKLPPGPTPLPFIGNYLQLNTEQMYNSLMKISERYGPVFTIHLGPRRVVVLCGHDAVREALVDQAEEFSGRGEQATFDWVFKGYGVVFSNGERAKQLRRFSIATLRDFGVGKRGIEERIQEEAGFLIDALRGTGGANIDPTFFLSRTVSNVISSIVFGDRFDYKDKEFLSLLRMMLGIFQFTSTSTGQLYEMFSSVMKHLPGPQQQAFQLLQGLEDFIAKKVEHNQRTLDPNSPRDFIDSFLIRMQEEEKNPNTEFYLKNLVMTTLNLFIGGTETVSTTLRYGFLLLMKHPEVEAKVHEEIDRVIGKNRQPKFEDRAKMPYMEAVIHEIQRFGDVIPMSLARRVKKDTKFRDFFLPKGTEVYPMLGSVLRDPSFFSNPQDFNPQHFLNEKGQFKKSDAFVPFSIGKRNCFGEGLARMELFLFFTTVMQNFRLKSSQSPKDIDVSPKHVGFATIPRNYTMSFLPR
To measure the time-dependent inhibition, human liver microsomes were preincubated with the various concentrations of APINACA (final concentrations of 0.1−100 μM) and NADPH for 30 min at 37 °C. Next, the reaction mixtures were incubated with a seven-CYP probe substrate cocktail or bupropion for 15 min at 37 °C. […]
On the technique in general: Liver microsomes are a subcellular fraction often used to study metabolism.

A further data set concerns the target T2, UGT1A9 (Homo sapiens, UniProt O60656).
T2 sequence (O60656 26-530): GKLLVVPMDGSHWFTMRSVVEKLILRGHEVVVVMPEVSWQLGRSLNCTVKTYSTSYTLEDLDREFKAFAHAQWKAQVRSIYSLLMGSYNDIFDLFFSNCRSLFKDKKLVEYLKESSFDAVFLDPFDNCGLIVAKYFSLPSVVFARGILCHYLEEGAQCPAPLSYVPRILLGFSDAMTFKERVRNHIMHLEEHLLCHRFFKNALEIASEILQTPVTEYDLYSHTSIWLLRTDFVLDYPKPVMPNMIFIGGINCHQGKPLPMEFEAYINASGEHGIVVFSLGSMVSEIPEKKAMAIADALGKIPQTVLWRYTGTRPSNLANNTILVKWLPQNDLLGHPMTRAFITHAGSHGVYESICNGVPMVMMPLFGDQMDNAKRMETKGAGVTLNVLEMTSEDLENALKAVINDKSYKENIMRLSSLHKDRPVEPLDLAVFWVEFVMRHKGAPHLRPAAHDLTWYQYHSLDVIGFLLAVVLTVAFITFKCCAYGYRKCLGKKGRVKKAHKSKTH
As to the kind of experiment: Enzyme kinetic analysis of UGT1A9 inhibition (Dixon plot) in human liver microsomes. Details: […]; tissue Corning Life Sciences. The procedure: The reaction was stopped by adding 100 μL of ice cold acetonitrile containing propofol glucuronide (internal standard), and the mixtures were centrifuged at 13,000× g for 4 min.
as §1

For the next data set, the target named is CYP3A4 (Homo sapiens, UniProt P08684). As to the kind of experiment: Time-dependent inhibition kinetics of CYP3A4 midazolam 1′-hydroxylation in human liver microsomes. The procedure: The kinetic parameters for the time-dependent inhibition potency of APINACA against human liver microsomal CYP3A4 activity were evaluated. Ultrapooled human liver microsomes (1 mg/mL) were preincubated with various concentrations of APINACA (final concentrations of 1–40 μM) in 50 mM potassium phosphate buffer (pH 7.4) in the presence of NADPH. Aliquots (10 μL) of the preincubated mixtures were withdrawn 5, 10, 20, and 30 min after incubation was commenced and were added to other tubes containing 2 μM midazolam, 1 mM NADPH, 50 mM potassium phosphate buffer (pH 7.4), and 10 mM MgCl2 in 90-μL reaction mixtures. The second reactions were terminated after 10 min by adding 100 μL of ice cold methanol containing d9-1′-hydroxybufuralol. […] Aliquots (5 μL) of the diluted supernatants were analyzed by LC–MS/MS.
Chain of CYP3A4 (P08684 2-503): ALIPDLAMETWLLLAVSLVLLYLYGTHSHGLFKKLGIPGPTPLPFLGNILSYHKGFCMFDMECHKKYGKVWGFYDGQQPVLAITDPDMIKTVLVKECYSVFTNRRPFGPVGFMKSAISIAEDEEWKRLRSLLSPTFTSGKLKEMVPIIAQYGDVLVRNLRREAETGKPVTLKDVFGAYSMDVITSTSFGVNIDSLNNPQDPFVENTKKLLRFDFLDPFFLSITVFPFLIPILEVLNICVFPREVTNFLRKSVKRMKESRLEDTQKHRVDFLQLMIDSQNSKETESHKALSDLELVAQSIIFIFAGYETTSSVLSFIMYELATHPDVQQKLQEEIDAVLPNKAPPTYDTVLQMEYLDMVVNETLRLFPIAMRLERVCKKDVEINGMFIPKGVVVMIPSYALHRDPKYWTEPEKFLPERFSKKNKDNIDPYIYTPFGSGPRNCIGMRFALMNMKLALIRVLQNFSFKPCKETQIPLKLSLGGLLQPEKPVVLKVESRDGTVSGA
as §1

The structures appear in SMILES notation. Read-outs that look alike come from different tables or passages of the source.

`CCCCCn1nc(C(=O)NC23CC4CC(CC(C4)C2)C3)c2ccccc21` [APINACA, N-(1-adamantyl)-1-pentyl-1H-indazole-3-carboxamide]: the IC50 is greater than 250 µM against OCT2; greater than 100 µM against CYP2A6; greater than 100 µM at CYP2A6 (read-out: IC50 (μM) With Preincubation, CYP2A6 coumarin 7-hydroxylase, ultrapooled human liver microsomes, 30-min preincubation with NADPH). On UGT1A9, this compound yielded a Ki of 5.9 µM. In addition, on UGT1A9 (human liver microsomes, enzyme kinetics study), the “mode of inhibition of UGT1A9-catalyzed mycophenolic acid glucuronidation” value is on record as “noncompetitively inhibited”. The “inactivation efficiency (kinact/Ki) for time-dependent inhibition of CYP3A4” value on CYP3A4 (human liver microsomes) worked out at 173 M⁻¹ s⁻¹. For the same compound, the kinact at CYP3A4 (pH 7.4, probe midazolam 2 μM (1′-hydroxylation), ultrapooled human liver microsomes, time-dependent inhibition, read-out: kinact for time-dependent inhibition of CYP3A4-catalyzed midazolam 1′-hydroxylase (converted)) was 0.000781 s⁻¹.

As a reminder, the IC50 is the concentration that gives 50% inhibition. What is called Ki is the dissociation constant of the complex between target and ligand, obtained from inhibition or displacement. A higher Ki goes with weaker binding. For orientation: kinact means the maximal first-order rate at which the target is inactivated.
